Assay results: patent US9737073B2, “Herbicidal weed control from combinations of fluroxypyr and ALS inhibitors” (Dow AgroSciences LLC, priority 2014, dated 2017)

How the values were obtained:
Format in all cases: in vivo
[1] = tested on: Abutilon theophrasti (velvetleaf, ABUTH); assay: Postemergence herbicidal weed control, fluroxypyr-meptyl and diclosulam, greenhouse trials (Table 1)
Protocol: (§1) Seeds of the desired test plant species were planted in a peat-based potting soil, Metro-Mix 360® in plastic pots with a surface area of 128 square centimeters (cm^2). Metro-Mix 360® consists of formulated Canadian sphagnum peat moss, coarse perlite, bark ash, a starter nutrient charge (with gypsum), a slow-release nitrogen and dolomitic limestone. The plants were grown for 7-19 days in a greenhouse with an approximate 14-hour (h) photoperiod which was maintained at about 29° C. during the day and 26° C. during the night. Nutrients and water were added on a regular basis and supplemental lighting was provided with overhead metal halide 1000-Watt lamps as necessary. The plants were treated with postemergence foliar applications when they reached the third to fourth true leaf stage. All treatments were applied using a randomized complete block trial design, with 4 replications per treatment.
(§2) Treatments consisted of the compounds as listed in Tables 1 to 4, each compound applied alone and in combination. Commercially formulated products of fluroxypyr-meptyl (STARANE™, 333 grams acid equivalent per liter (g ae/L) EC), diclosulam (SPIDER® 84WG), cloransulam-methyl (FIRSTRATE™ 84WG), chlorimuron-ethyl (CLASSIC® 25WG) and thifensulfuron-methyl (HARMONY® 50SG). Formulated amounts of fluroxypyr-meptyl, diclosulam, cloransulam-methyl, chlorimuron-ethyl and thifensulfuron-methyl were placed in 60 milliliter (mL) glass vials and dissolved in a volume of 30 or 60 mL of a water solution containing Agri-dex crop oil concentrate in a 1% volume per volume (v/v) ratio. Compound requirements are based upon either a 30- or a 60-mL application volume at a rate of 200 liters per hectare (L/ha). Spray solutions of the mixtures were prepared by adding the stock solutions to the appropriate amount of dilution solution to form either a 30- or a 60-mL spray solution with active ingredients in single and two-way combinations. Formulated compounds were applied to the plant material with an overhead Generation III Research Sprayer manufactured by DeVries Manufacturing in Hollandale, Minn., USA. The track sprayer was equipped with an 8003E nozzle calibrated to deliver 200 L/ha at a spray height of 18 inches (43 centimeters (cm)) above average plant canopy.
(§3) The treated plants and untreated control plants were placed in a greenhouse as described above and watered by sub-irrigation to prevent wash-off of the test compounds.
(§4) Treatments were rated at 7 to 21 days after application (DAA) as compared to the untreated control plants. Visual weed control was scored on a scale of 0 to 100 percent where 0 corresponds to no injury and 100 corresponds to complete kill.
(§5) Colby's equation was used to determine the herbicidal effects expected from the mixtures (Colby, S. R. Calculation of the synergistic and antagonistic response of herbicide combinations. Weeds 196715, 20-22). A t-test (alpha=0.05) between Colby predictions and observed combinations was used to test for significant differences indicating synergy or antagonism. The results presented in the Tables were significant according to the described criteria.
(§6) The following equation was used to calculate the expected activity of mixtures containing two active ingredients, A and B: Expected=A+B−(A×B/100) • A=observed efficacy of active ingredient A at the same concentration as used in the mixture; • B=observed efficacy of active ingredient B at the same concentration as used in the mixture.

[2] = tested on: Amaranthus rudis Sauer (common waterhemp, AMATA); assay: as above
Protocol: as §1, §2, §3, §4, §5, §6

[3] = tested on: Chenopodium album (common lambsquarters, CHEAL); assay: as above
Protocol: as §1, §2, §3, §4, §5, §6

[4] = tested on: Commelina benghalensis (tropical spiderwort, COMBE); assay: as above
Protocol: (§7) Field trials were conducted using standard herbicide small plot research methodology. Plots varied from 3×3.3 meter (m) to 4.5×10 m (width×length) with 4 replicates per treatment. The crops used in the field trials were grown using normal cultural practices for land preparation, fertilization, seeding and maintenance to ensure good growth of the crop and the weeds.
(§8) All treatments in the field trials were applied using either pressurized air or carbon dioxide (CO2) backpack or bicycle sprayers calibrated to apply 100-187 L/ha spray volume. Flat Fan spray nozzles were used in all trials, with water as the diluent applied at 275-300 kilopascals (kPa). Weed sizes at application ranged from 10 to 40 cm tall. Commercially available products of fluroxypyr-meptyl (STARANE™, 180 and 333 g ae/L EC), diclosulam (SPIDER® 84WG), and thifensulfuron-methyl (HARMONY® 75WG) were mixed in water at appropriately formulated product rates to achieve the desired rates based on a unit area of application (hectare) to achieve the desired rates as shown. No adjuvants were tank-mixed with any treatments applied in the field trials. Treatments were rated at 14-26 days after application as compared to the untreated control plants. Visual weed control was scored on a scale of 0 to 100 percent where 0 corresponds to no injury and 100 corresponds to complete kill.
(§9) The treated plots and control plots were rated blind at various intervals after application. Ratings were reported on a Percent (%) Visual Control basis, where 0 corresponds to no visual effect/weed control and 100 corresponds to complete kill of the target weeds.
as §5, §6

[5] = tested on: Sida cordifolia L. (heartleaf sida, SIDCO); assay: as above; conditions: 14DAA1, 25.2 g ai/ha
Protocol: as §1
Treatments consisted of the compounds as listed in Tables 1 to 4, each compound applied alone and in combination. […]
Treatments were rated at 7 to 21 days after application (DAA) as compared to the untreated control plants. Visual weed control was scored on a scale of 0 to 100 percent where 0 corresponds to no injury and 100 corresponds to complete kill. […]

[6] = tested on: Abutilon theophrasti (velvetleaf, ABUTH); assay: Postemergence herbicidal weed control, fluroxypyr-meptyl and chlorimuron-ethyl, field trials (Table 3)
Protocol: as §1, §2, §3, §4, §7
as §8, with “Visual weed control was scored on a scale of 0 to 100 percent where 0 corresponds to no injury and 100 corresponds to complete kill.” left out

[7] = tested on: Amaranthus rudis Sauer (common waterhemp, AMATA); assay: as above
Protocol: as §1, §2, §3, §4, §7
as §8, with “Visual weed control was scored on a scale of 0 to 100 percent where 0 corresponds to no injury and 100 corresponds to complete kill.” left out

[8] = tested on: Amaranthus retroflexus L. (redroot pigweed, AMARE); assay: Postemergence herbicidal weed control, fluroxypyr-meptyl and thifensulfuron-methyl, field trials (Table 4); conditions: 21DAA1, 13.0 g ai/ha
Protocol: as §7, §8, §9, §5, §6

[9] = tested on: Chenopodium album (common lambsquarters, CHEAL); assay: as above; conditions: 21DAA1, 13.0 g ai/ha
Protocol: as §7, §8, §9, §5, §6

[10] = tested on: Polygonum convolvulus L. (wild buckwheat, POLCO); assay: as above; conditions: 21DAA1, 13.0 g ai/ha
Protocol: as §7, §8, §9, §5, §6

[11] = tested on: Abutilon theophrasti (velvetleaf, ABUTH); assay: as above
Protocol: as §1, §2, §3, §4, §7
(§10) All treatments in the field trials were applied using either pressurized air or carbon dioxide (CO2) backpack or bicycle sprayers calibrated to apply 100-187 L/ha spray volume. Flat Fan spray nozzles were used in all trials, with water as the diluent applied at 275-300 kilopascals (kPa). Weed sizes at application ranged from 10 to 40 cm tall. […]

[12] = tested on: Amaranthus palmeri S. Wats. (Palmer amaranth, AMAPA); assay: as above; conditions: 7DAA1, 2.2 g ai/ha
Protocol: as §1, §2, §3, §4, §7, §10

[13] = tested on: Abutilon theophrasti (velvetleaf, ABUTH); assay: Postemergence herbicidal weed control, fluroxypyr-meptyl and cloransulam-methyl, field trials (Table 2)
Protocol: as §1, §2, §3, §4, §7
as §8, with “Visual weed control was scored on a scale of 0 to 100 percent where 0 corresponds to no injury and 100 corresponds to complete kill.” left out

[14] = tested on: Amaranthus rudis Sauer (common waterhemp, AMATA); assay: as above
Protocol: as §1, §2, §3, §4, §7
as §8, with “Visual weed control was scored on a scale of 0 to 100 percent where 0 corresponds to no injury and 100 corresponds to complete kill.” left out

[15] = tested on: Chenopodium album (common lambsquarters, CHEAL); assay: as above
Protocol: as §1, §2, §3, §4, §7
as §8, with “Treatments were rated at 14-26 days after application as compared to the untreated control plants.” left out, “kill. […]” for “kill.”

## CCOc1nc(F)cc2nc(S(=O)(=O)Nc3c(Cl)cccc3Cl)nn12 [Diclosulam, N-(2,6-dichlorophenyl)-5-ethoxy-7-fluoro[1,2,4]triazolo[1,5-c]pyrimidine-2-sulfonamide]
[1]; 14DAA1, 1.1 g ai/ha
  Diclosulam Mean % weed control: 28.8%
[1]; 21DAA1, 1.1 g ai/ha
  Diclosulam Mean % weed control: 30.0%
[2]; 8DAA1, 8.8 g ai/ha
  Diclosulam Mean % weed control: 51.3%
[2]; 14DAA1, 4.4 g ai/ha
  Diclosulam Mean % weed control: 28.8%
[2]; 14DAA1, 8.8 g ai/ha
  Diclosulam Mean % weed control: 27.5%
[2]; 21DAA1, 4.4 g ai/ha
  Diclosulam Mean % weed control: 25.0%
[2]; 21DAA1, 8.8 g ai/ha
  Diclosulam Mean % weed control: 28.8%
[3]; 8DAA1, 8.8 g ai/ha
  Diclosulam Mean % weed control: 38.3%
[3]; 14DAA1, 2.2 g ai/ha
  Diclosulam Mean % weed control: 3.3%
[3]; 14DAA1, 8.8 g ai/ha
  Diclosulam Mean % weed control: 21.7%
[3]; 21DAA1, 2.2 g ai/ha
  Diclosulam Mean % weed control: 5.0%
[3]; 21DAA1, 4.4 g ai/ha
  Diclosulam Mean % weed control: 16.7%
[3]; 21DAA1, 8.8 g ai/ha
  Diclosulam Mean % weed control: 31.7%
[4]; 14DAA1, 25.2 g ai/ha
  Diclosulam Mean % weed control: 41.3%
[4]; 26DAA1, 25.2 g ai/ha
  Diclosulam Mean % weed control: 17.5%
[5]
  Diclosulam Mean % weed control: 23.3%

## CCOC(=O)c1ccccc1S(=O)(=O)NC(=O)Nc1nc(Cl)cc(OC)n1 [Chlorimuron-ethyl, ethyl 2-[[[[(4-chloro-6-methoxy-2-pyrimidinyl)amino]carbonyl]amino]-sulfonyl]benzoate]
[6]; 14DAA1, 1.1 g ai/ha
  Chlorimuron-ethyl Mean % weed control: 56.3%
[6]; 14DAA1, 2.2 g ai/ha
  Chlorimuron-ethyl Mean % weed control: 62.5%
[7]; 7DAA1, 8.8 g ai/ha
  Chlorimuron-ethyl Mean % weed control: 41.3%
[7]; 14DAA1, 8.8 g ai/ha
  Chlorimuron-ethyl Mean % weed control: 28.8%

## COC(=O)c1sccc1S(=O)(=O)NC(=O)Nc1nc(C)nc(OC)n1 [Thifensulfuron-methyl, methyl 3-[[[[(4-methoxy-6-methyl-1,3,5-triazin-2-yl)amino]carbonyl]amino]sulfonyl]-2-thiophenecarboxylate]
[8]
  Thifensulfuron-methyl Mean % weed control: 90.0%
[9]
  Thifensulfuron-methyl Mean % weed control: 90.0%
[10]
  Thifensulfuron-methyl Mean % weed control: 90.0%
[11]; 14DAA1, 0.6 g ai/ha
  Thifensulfuron-methyl Mean % weed control: 56.3%
[11]; 14DAA1, 1.1 g ai/ha
  Thifensulfuron-methyl Mean % weed control: 73.8%
[12]
  Thifensulfuron-methyl Mean % weed control: 22.5%

## CCOc1nc(F)cc2nc(S(=O)(=O)Nc3c(Cl)cccc3C(=O)OC)nn12 [Cloransulam-methyl, methyl 3-chloro-2-[[(5-ethoxy-7-fluoro[1,2,4]triazolo[1,5-c]pyrimidin-2-yl)sulfonyl]amino]benzoate]
[13]; 14DAA1, 1.1 g ai/ha
  Cloransulam-methyl Mean % weed control: 38.3%
[13]; 14DAA1, 4.4 g ai/ha
  Cloransulam-methyl Mean % weed control: 70.0%
[13]; 21DAA1, 1.1 g ai/ha
  Cloransulam-methyl Mean % weed control: 40.0%
[13]; 21DAA1, 4.4 g ai/ha
  Cloransulam-methyl Mean % weed control: 70.0%
[14]; 8DAA1, 4.4 g ai/ha
  Cloransulam-methyl Mean % weed control: 58.8%
[14]; 14DAA1, 4.4 g ai/ha
  Cloransulam-methyl Mean % weed control: 38.8%
[14]; 21DAA1, 4.4 g ai/ha
  Cloransulam-methyl Mean % weed control: 37.5%
[15]; 8DAA1, 4.4 g ai/ha
  Cloransulam-methyl Mean % weed control: 35.0%
[15]; 14DAA1, 1.1 g ai/ha
  Cloransulam-methyl Mean % weed control: 16.7%
[15]; 14DAA1, 4.4 g ai/ha
  Cloransulam-methyl Mean % weed control: 11.7%
[15]; 21DAA1, 1.1 g ai/ha
  Cloransulam-methyl Mean % weed control: 8.3%
[15]; 21DAA1, 4.4 g ai/ha
  Cloransulam-methyl Mean % weed control: 11.0%
[15]; 21DAA1, 8.8 g ai/ha
  Cloransulam-methyl Mean % weed control: 10.0%
